Patent US20130344026A1, “Dimeric Smac Mimetics” (priority 2009, published 2013)
Like-named read-outs stand apart in the source and are kept apart here.

Test system: PANC-1 cells
Assay: cell viability assay in PANC-1 cells (compound alone, + 100 ng/ml TNFa, + 300 ng/ml TRAIL)
Assay type: cell-based
[1] = Homo sapiens, PANC-1, compound alone, Tables 6-10, read-out: IC50 (μM) in cell viability assay in PANC-1 cells: Compound alone
[2] = with 100 ng/ml TNFa, Tables 6-10, read-out: IC50 (μM) in cell viability assay in PANC-1 cells: Compound + 100 ng/ml TNFa
[3] = with 300 ng/ml TRAIL, Tables 6-10, read-out: IC50 (μM) in cell viability assay in PANC-1 cells: Compound + 300 ng/ml TRAIL
[4] = Homo sapiens, PANC-1 cells, compound alone, read-out: IC50 (uM) in cell viability assay in PANC-1 cells, Cmpnd alone
[5] = PANC-1 cells, + 100 ng/ml TNFa, read-out: IC50 (uM) in cell viability assay in PANC-1 cells, Cmpnd + 100 ng/ml TNFa
[6] = PANC-1 cells, + 300 ng/ml TRAIL, read-out: IC50 (uM) in cell viability assay in PANC-1 cells, Cmpnd + 300 ng/ml TRAIL
[7] = Homo sapiens, PANC-1, compound alone, Tables 15-18, read-out: IC50 (uM) in cell viability assay in PANC-1 cells: Cmpnd alone
[8] = with 100 ng/ml TNFa, Tables 15-18, read-out: IC50 (uM) in cell viability assay in PANC-1 cells: Cmpnd + 100 ng/ml TNFa
[9] = with 300 ng/ml TRAIL, Tables 15-18, read-out: IC50 (uM) in cell viability assay in PANC-1 cells: Cmpnd + 300 ng/ml TRAIL
[10] = compound alone, Tables 6-10, read-out: IC50 (μM) in cell viability assay in PANC-1 cells: Compound alone

Compound | IC50 [1] | IC50 [2] | IC50 [3] | other results
CN[C@@H](C)C(=O)N[C@@H](CC#CC#CC[C@H](NC(=O)[C@H](C)NC)C(=O)N1CCC[C@H]1CNC(=O)c1ccccn1)C(=O)N1CCC[C@H]1CNC(=O)c1ccccn1 [Compound 15] | > 1 µM | 0.209 µM | 0.235 µM | 
CN[C@@H](C)C(=O)N[C@H](C(=O)N1C[C@@H](N(C)C(=O)c2cc(C(=O)N(C)[C@H]3C[C@@H](C(=O)N[C@H](C)c4ccccc4)N(C(=O)[C@@H](NC(=O)[C@H](C)NC)C(C)(C)C)C3)[nH]n2)C[C@H]1C(=O)N[C@H](C)c1ccccc1)C(C)(C)C [Compound P3-109] |  |  |  | IC50 [4]: > 1 µM; IC50 [5]: 0.028 µM; IC50 [6]: 0.049 µM
CN[C@@H](C)C(=O)N[C@H](C(=O)N1C[C@@H](Oc2cccc(C#CC#Cc3cccc(O[C@H]4C[C@@H](C(=O)N[C@@H]5CCCc6ccccc65)N(C(=O)[C@@H](NC(=O)[C@H](C)NC)C(C)(C)C)C4)c3)c2)C[C@H]1C(=O)N[C@@H]1CCCc2ccccc21)C(C)(C)C [Compound P3-103] |  |  |  | IC50 [4]: > 1 µM; IC50 [5]: 0.0316 µM; IC50 [6]: 0.037 µM
CN[C@@H](C)C(=O)N[C@H](C(=O)N1CCC[C@H]1C(=O)N[C@H](COC(=O)c1cccc(C(=O)OC[C@@H](NC(=O)[C@@H]2CCCN2C(=O)[C@@H](NC(=O)[C@H](C)NC)C(C)(C)C)c2ccccc2)c1)c1ccccc1)C(C)(C)C [Compound P4-23] |  |  |  | IC50 [7]: > 1 µM; IC50 [8]: 0.014 µM; IC50 [9]: 0.006 µM
CN[C@@H](C)C(=O)N[C@H](C(=O)N1CCC[C@H]1C(=O)N[C@H]1c2ccccc2C[C@@H]1OCCCCCCO[C@H]1Cc2ccccc2[C@@H]1NC(=O)[C@@H]1CCCN1C(=O)[C@@H](NC(=O)[C@H](C)NC)C(C)(C)C)C(C)(C)C [Compound 122] | > 1 µM | 0.0015 µM | 0.0014 µM | 
CN[C@@H](C)C(=O)N[C@H](C(=O)N1C[C@@H](NC(=O)c2cccc(C(=O)N[C@H]3C[C@@H](C(=O)NC4CCCc5c(OC)cccc54)N(C(=O)[C@@H](NC(=O)[C@H](C)NC)C(C)(C)C)C3)c2)C[C@H]1C(=O)NC1CCCc2c(OC)cccc21)C(C)(C)C (single isomer, unassigned) [Compound 46] | > 1 µM | 0.048 µM | 0.014 µM | 
CN[C@@H](C)C(=O)N[C@@H](CC#CC#CC[C@H](NC(=O)[C@H](C)NC)C(=O)N1CCC[C@H]1CNC(=O)c1ccccc1)C(=O)N1CCC[C@H]1CNC(=O)c1ccccc1 [Compound 14] | > 1 µM | > 1 µM | > 1 µM | 
CN[C@@H](C)C(=O)N[C@H](C(=O)N1CCC[C@H]1C(=O)N[C@H]1c2ccccc2C[C@H]1OCC#CC#CCO[C@@H]1Cc2ccccc2[C@@H]1NC(=O)[C@@H]1CCCN1C(=O)[C@@H](NC(=O)[C@H](C)NC)C(C)(C)C)C(C)(C)C [Compound 119] | > 1 µM | 0.0014 µM | 0.0018 µM | 
CN[C@@H](C)C(=O)N[C@H](C(=O)N[C@@H](CCNC(=O)c1ccc2cc(C(=O)N[C@H]3C[C@@H](C(=O)N[C@@H]4CCCc5ccccc54)N(C(=O)[C@@H](NC(=O)[C@H](C)NC)C(C)(C)C)C3)ccc2c1)C(=O)N[C@H](C)C(C)C)C(C)C [Compound 185] | > 1 µM | 0.008 µM | 0.004 µM | 
CN[C@@H](C)C(=O)Nc1nc(CC(=O)NC[C@@H](NC(=O)[C@@H]2CCCN2C(=O)[C@@H](NC(=O)[C@H](C)NC)C(C)(C)C)c2ccccc2)cs1 [Compound 193] | > 1 µM | > 1 µM | > 1 µM | 
CN[C@@H](C)C(=O)N[C@@H](CCCCCC[C@H](NC(=O)[C@H](C)NC)C(=O)N1CCC[C@H]1CNC(=O)c1ccccc1O)C(=O)N1CCC[C@H]1CNC(=O)c1ccccc1O [Compound 20] | > 1 µM | > 1 µM | > 1 µM | 
CN[C@@H](C)C(=O)N[C@@H](CC(=O)NCC[C@H](NC(=O)[C@@H](NC(=O)[C@H](C)NC)C(C)(C)C)C(=O)N[C@@H]1CCCc2ccccc21)C(=O)N1CCC[C@H]1C(=O)N[C@@H]1CCCc2ccccc21 [Compound 200] | > 1 µM | 0.046 µM | 0.084 µM | 
CNC(C)C(=O)Nc1nc(-c2ccccc2)c(C(=O)NC[C@@H](NC(=O)[C@@H]2CCCN2C(=O)[C@@H](NC(=O)[C@H](C)NC)C(C)(C)C)c2ccccc2)s1 (stereo partly drawn) [Compound 192] | > 1 µM | 0.659 µM | > 1 µM | 
CN[C@@H](C)C(=O)N[C@H](C(=O)N1CCC[C@H]1C(=O)N[C@H]1c2ccccc2C[C@@H]1NC(=O)CCCCC(=O)N[C@H]1Cc2ccccc2[C@@H]1NC(=O)[C@@H]1CCCN1C(=O)[C@@H](NC(=O)[C@H](C)NC)C(C)(C)C)C(C)(C)C [Compound 123] | > 1 µM | 0.069 µM | 0.067 µM | 
C#CC[C@H](NC(=O)[C@H](C)NC)C(=O)N1C[C@@H](NC(=O)c2cc(N)cc(C(=O)N[C@H]3C[C@@H](C(=O)N[C@@H]4CCCc5ccccc54)N(C(=O)[C@@H](NC(=O)[C@H](C)NC)C(C)(C)C)C3)c2)C[C@H]1C(=O)N[C@@H]1CCCc2ccccc21 [Compound H-6] |  |  |  | IC50 [7]: > 1 µM; IC50 [8]: 0.0229 µM; IC50 [9]: 0.0611 µM
CN[C@@H](C)C(=O)N[C@H](C(=O)N1C[C@@H](NC(=O)c2cccc(C(=O)N[C@H]3C[C@@H](C(=O)NCc4ccc(OC)c(O)c4)N(C(=O)[C@@H](NC(=O)[C@H](C)NC)C(C)(C)C)C3)c2)C[C@H]1C(=O)NCc1ccc(OC)c(O)c1)C(C)(C)C [Compound 5] | > 1 µM | 0.706 µM | 0.982 µM | 
CN[C@@H](C)C(=O)N[C@H](C(=O)N1C[C@@H](NC(=O)C2CCCC(C(=O)N[C@H]3C[C@@H](C(=O)N[C@H](C)c4ccccc4)N(C(=O)[C@@H](NC(=O)[C@H](C)NC)C(C)(C)C)C3)C2)C[C@H]1C(=O)N[C@H](C)c1ccccc1)C(C)(C)C (stereo partly drawn) [Compound P3-102] |  |  |  | IC50 [5]: 0.017 µM; IC50 [6]: 0.023 µM; IC50 (PANC-1 cells, compound alone, read-out: IC50 (uM) in cell viability assay in PANC-1 cells, Cmpnd alone): > 1 µM
CN[C@@H](C)C(=O)N[C@@H](CCCCNC(=O)NCCCC[C@H](NC(=O)[C@H](C)NC)C(=O)N1C[C@@H](Oc2ccccc2)C[C@H]1C(=O)N[C@@H]1CCCc2ccccc21)C(=O)N1C[C@@H](Oc2ccccc2)C[C@H]1C(=O)N[C@@H]1CCCc2ccccc21 [Compound P2-37] |  |  |  | IC50 [7]: > 1 µM; IC50 [8]: 0.174 µM; IC50 [9]: 0.527 µM
CN[C@@H](C)C(=O)Nc1nc(CC(=O)NCC[C@H](NC(=O)[C@@H](NC(=O)[C@H](C)NC)C(C)(C)C)C(=O)N[C@@H]2CCCc3ccccc32)cs1 [Compound 190] | > 1 µM | > 1 µM | > 1 µM | 
CN[C@@H](C)C(=O)N[C@H](C(=O)N1C[C@@H](NC(=O)c2cccc(C(=O)N[C@H]3C[C@@H](C(=O)N[C@@H]4CCCc5cc(O)ccc54)N(C(=O)[C@@H](NC(=O)[C@H](C)NC)C(C)(C)C)C3)c2)C[C@H]1C(=O)N[C@@H]1CCCc2cc(O)ccc21)C(C)(C)C (single isomer, unassigned) [Compound 61] | > 1 µM | 0.324 µM | 0.439 µM | 
CN[C@@H](C)C(=O)N[C@H](C(=O)N1CCC[C@H]1CN1CCC[C@H]1C(c1ccccc1)c1ccccc1)[C@@H](C)OCCCCCCO[C@H](C)[C@H](NC(=O)[C@H](C)NC)C(=O)N1CCC[C@H]1CN1CCC[C@H]1C(c1ccccc1)c1ccccc1 [Compound 83] | > 1 µM | 0.494 µM | 0.437 µM | 
CN[C@@H](C)C(=O)N[C@@H](CCCCCC[C@H](NC(=O)[C@H](C)NC)C(=O)N[C@H]1c2ccccc2C[C@@H]1NC(=O)c1c(OC)cccc1OC)C(=O)N[C@H]1c2ccccc2C[C@@H]1NC(=O)c1c(OC)cccc1OC [Compound 59] | > 1 µM | > 1 µM | > 1 µM | 
CN[C@@H](C)C(=O)N[C@H](C(=O)N1C[C@@H](NC(=O)c2cccc(C(=O)N[C@H]3C[C@@H](C(=O)NC4CCCc5ccc([N+](=O)[O-])cc54)N(C(=O)[C@@H](NC(=O)[C@H](C)NC)C(C)(C)C)C3)c2)C[C@H]1C(=O)NC1CCCc2ccc([N+](=O)[O-])cc21)C(C)(C)C (single isomer, unassigned) [Compound 64] | > 1 µM | 0.18 µM | 0.151 µM | 
CN[C@@H](C)C(=O)N[C@H](C(=O)N1C[C@@H](NC(=O)c2cccc(C(=O)N[C@H]3C[C@@H](C(=O)NC4CCOc5ccccc54)N(C(=O)[C@@H](NC(=O)[C@H](C)NC)C(C)(C)C)C3)c2)C[C@H]1C(=O)NC1CCOc2ccccc21)C(C)(C)C (single isomer, unassigned) [Compound 66] |  | 0.012 µM | 0.013 µM | IC50 [10]: > 1 µM
CN[C@@H](C)C(=O)N[C@@H](CCCCCC[C@H](NC(=O)[C@H](C)NC)C(=O)N1c2ccccc2C[C@H]1C(=O)N[C@H](C)c1ccccc1)C(=O)N1c2ccccc2C[C@H]1C(=O)N[C@H](C)c1ccccc1 [Compound 92] | > 1 µM | 0.547 µM | 0.798 µM | 
CCCC[C@@H](C)NC(=O)c1cc(C(=O)N[C@H]2C[C@@H](C(=O)N[C@@H]3CCCc4ccccc43)N(C(=O)[C@@H](NC(=O)[C@H](C)NC)C(C)(C)C)C2)cc(C(=O)N[C@H]2C[C@@H](C(=O)N[C@@H]3CCCc4ccccc43)N(C(=O)[C@@H](NC(=O)[C@H](C)NC)C(C)(C)C)C2)c1 [Compound 129] |  | 0.006 µM | 0.004 µM | IC50 [10]: > 1 µM
